Tested on: K12877-001-R-J1-PDC complex spheroid viability
Assay: Anticancer human tumor K12877-001-R-J1-PDC patient-derived lung adenocarcinoma cell line growth inhibition [RAS]
Settings: for IC50: curve of first compound; for viability, T/C: stronger effect = lower value
Method in brief: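 Multi-cell-type spheroids: tumor cells plus HUVEC endothelial cells and mesenchymal stem cells. RAS-pathway inhibitors were combined with targeted agents, each dosed in half-log steps down from clinical Cmax, or from 10 microM when Cmax was unknown.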

[1] = second compound 0.000949 µM, first compound 0.0316 µM
[2] = second compound 0.000949 µM, first compound 0.1 µM
[3] = second compound 0.000949 µM, first compound 0.316 µM
[4] = second compound 0.000949 µM, first compound 1 µM
[5] = second compound 0.003 µM, first compound 0.0316 µM
[6] = second compound 0.003 µM, first compound 0.1 µM
[7] = second compound 0.003 µM, first compound 0.316 µM
[8] = second compound 0.003 µM, first compound 1 µM
[9] = second compound 0.00949 µM, first compound 0.0316 µM
[10] = second compound 0.00949 µM, first compound 0.1 µM
[11] = second compound 0.00949 µM, first compound 0.316 µM
[12] = second compound 0.00949 µM, first compound 1 µM
[13] = second compound 0.03 µM, first compound 0.0316 µM
[14] = second compound 0.03 µM, first compound 0.1 µM
[15] = second compound 0.03 µM, first compound 0.316 µM
[16] = second compound 0.03 µM, first compound 1 µM
[17] = second compound 0.0949 µM, first compound 0.0316 µM
[18] = second compound 0.0949 µM, first compound 0.1 µM
[19] = second compound 0.0949 µM, first compound 0.316 µM
[20] = second compound 0.0949 µM, first compound 1 µM
[21] = second compound 0.3 µM, first compound 0.0316 µM
[22] = second compound 0.3 µM, first compound 0.1 µM
[23] = second compound 0.3 µM, first compound 0.316 µM
[24] = second compound 0.3 µM, first compound 1 µM
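Note: spheroids exposed to agents for one week before readout.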
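Throughout, for viability, T/C: tumour cells co-cultured with HUVEC and mesenchymal stem cells in spheroids.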

`NC1c2ccccc2OC12CCN(c1cnc3c(N4CCCc5ncccc54)n[nH]c3n1)CC2` (centres undefined) + CCn1c(-c2cc(N3CCN(C)CC3)cnc2C(C)OC)c2c3cc(ccc31)-c1csc(n1)CC(NC(=O)C1CC1C)C(=O)N1CCCC(N1)C(=O)OCC(C)(C)C2 was tested, and the IC50 (second compound 0.000949 µM) was > 10000 nM, the IC50 (second compound 0.003 µM) was 7630 nM and the IC50 (second compound 0.00949 µM) was 4860 nM. The IC50 (second compound 0.03 µM) was 3490 nM, the IC50 (second compound 0.0949 µM) was 1330 nM and the IC50 (second compound 0.3 µM) was 937 nM. It also gave a viability, T/C [1] of 64.9%, a viability, T/C [2] of 57.4% and a viability, T/C [3] of 58%. It also gave a viability, T/C [4] of 83.2%, a viability, T/C (second compound 0.000949 µM, first compound 3.16 µM) of 61.3% and a viability, T/C (second compound 0.000949 µM, first compound 10 µM) of 46.9%. It also gave a viability, T/C [5] of 55.2%, a viability, T/C [6] of 72.1% and a viability, T/C [7] of 84.6%. The viability, T/C [8] was 82.2%, the viability, T/C (second compound 0.003 µM, first compound 3.16 µM) was 62.9% and the viability, T/C (second compound 0.003 µM, first compound 10 µM) was 46%. For the same molecule, the viability, T/C [9] was 84.1%, the viability, T/C [10] was 80% and the viability, T/C [11] was 74.1%. It also gave a viability, T/C [12] of 64.9%, a viability, T/C (second compound 0.00949 µM, first compound 3.16 µM) of 59.5% and a viability, T/C (second compound 0.00949 µM, first compound 10 µM) of 38.6%. It also gave a viability, T/C [13] of 102%, a viability, T/C [14] of 97.1% and a viability, T/C [15] of 72.4%. It also gave a viability, T/C [16] of 64%, a viability, T/C (second compound 0.03 µM, first compound 3.16 µM) of 56.9% and a viability, T/C (second compound 0.03 µM, first compound 10 µM) of 34.2%. For the same molecule, the viability, T/C [17] was 91.9%, the viability, T/C [18] was 77.6% and the viability, T/C [19] was 64.9%. The viability, T/C [20] was 52.7%, the viability, T/C (second compound 0.0949 µM, first compound 3.16 µM) was 41.9% and the viability, T/C (second compound 0.0949 µM, first compound 10 µM) was 33%. For the same molecule, the viability, T/C [21] was 77.4%, the viability, T/C [22] was 67.7% and the viability, T/C [23] was 60%. For the same molecule, the viability, T/C [24] was 49.3%, the viability, T/C (second compound 0.3 µM, first compound 3.16 µM) was 39.1% and the viability, T/C (second compound 0.3 µM, first compound 10 µM) was 26%.
Molecule `Nc1ccn(C2OC(CO)C(O)C2(F)F)c(=O)n1` (centres undefined) + CCn1c(-c2cc(N3CCN(C)CC3)cnc2C(C)OC)c2c3cc(ccc31)-c1csc(n1)CC(NC(=O)C1CC1C)C(=O)N1CCCC(N1)C(=O)OCC(C)(C)C2 has an IC50 (second compound 0.000949 µM) of 13.9 nM, an IC50 (second compound 0.003 µM) of 13.4 nM and an IC50 (second compound 0.00949 µM) of 11.6 nM. For the same molecule, the IC50 (second compound 0.03 µM) was 17.5 nM, the IC50 (second compound 0.0949 µM) was 16.8 nM and the IC50 (second compound 0.3 µM) was 17.4 nM. The viability, T/C (second compound 0.000949 µM, first compound 0.00316 µM) was 76.3%, the viability, T/C (second compound 0.000949 µM, first compound 0.01 µM) was 66.7% and the viability, T/C [1] was 8.22%. For the same molecule, the viability, T/C [2] was 4.35%, the viability, T/C [3] was 4.92% and the viability, T/C [4] was 5.37%. For the same molecule, the viability, T/C (second compound 0.003 µM, first compound 0.00316 µM) was 62.2%, the viability, T/C (second compound 0.003 µM, first compound 0.01 µM) was 64% and the viability, T/C [5] was 10.9%. The viability, T/C [6] was 4.55%, the viability, T/C [7] was 4.11% and the viability, T/C [8] was 4.17%. It also gave a viability, T/C (second compound 0.00949 µM, first compound 0.00316 µM) of 59.7%, a viability, T/C (second compound 0.00949 µM, first compound 0.01 µM) of 55.8% and a viability, T/C [9] of 9.86%. It also gave a viability, T/C [10] of 3.95%, a viability, T/C [11] of 4.84% and a viability, T/C [12] of 4.74%. It also gave a viability, T/C (second compound 0.03 µM, first compound 0.00316 µM) of 93.2%, a viability, T/C (second compound 0.03 µM, first compound 0.01 µM) of 86.8% and a viability, T/C [13] of 10.9%. For the same molecule, the viability, T/C [14] was 4.44%, the viability, T/C [15] was 4.77% and the viability, T/C [16] was 3.54%. The viability, T/C (second compound 0.0949 µM, first compound 0.00316 µM) was 103%, the viability, T/C (second compound 0.0949 µM, first compound 0.01 µM) was 80.9% and the viability, T/C [17] was 12.4%. For the same molecule, the viability, T/C [18] was 3.68%, the viability, T/C [19] was 3.46% and the viability, T/C [20] was 4.36%. It also gave a viability, T/C (second compound 0.3 µM, first compound 0.00316 µM) of 84.6%, a viability, T/C (second compound 0.3 µM, first compound 0.01 µM) of 80.6% and a viability, T/C [21] of 17%. It also gave a viability, T/C [22] of 2.67%, a viability, T/C [23] of 3.61% and a viability, T/C [24] of 2.74%.
